# According to US20070082339A1, “Methods and compositions for screening for HDAC inhibitory activity” (priority 2005, published 2007):
# System: A549 cells
# Experiment: Microarray analysis of gene expression after LAQ824 treatment
# Type: cell-based, human
# Conditions: A549, 500 nM vs DMSO
# Procedure: The human lung carcinoma cell line A549 is obtained from the American Type Culture Collection (Rockville, Md.) and cultured in F-12K (ATCC, Manassas, Va.), 10% fetal bovine serum, and 1% penicillin/streptomycin (Life Technologies, Inc.). LAQ824 (Novartis) is added directly to the cell medium at a final concentration of 500 nM. Microarray analysis is performed essentially as described previously (Welsh, 2001). Total RNA is prepared from A549 cells treated with LAQ 824 or DMSO for 0.5, 2, 6, 12 and 24 h. Labelled cDNA is prepared and hybridized to Affymetrix U133 oligonucleotide GeneChip® (Affymetrix, Santa Clara, Calif.). The arrays were scanned on an Affymetrix GeneArray scanner and analyzed with GENECHIP Microarray Analysis Suite 5.0 software (MAS5) (Affymetrix). The data (raw data including image files and scanner files (Cel. Files) as well as the MAS5 normalized data are stored in the DEMON Database. The MAS5 normalized data are exported from the database and analyzed using GeneSpring software version 6.1. The genes are filtered for a minimal expression of 100 in at least one condition (the condition being defined as the average the value for the 3 samples corresponding to a given time point and a treatement) The gene expression changes (fold change) are calculated for each time point (t) as follow: (Gene expression level LAQ824 treated—(Average of the 3 replicates) Time (t))/(Gene expression level DMSO treated—(Average of the 3 replicates) Time (t)).
# Any fold change <0 indicated a down regulation or reduction of the mRNA production, any fold change >0 indicated an up regulation or increase of mRNA production. Genes are filtered according to the fold change and the statistical significance of the changes (1-way-ANOVA test p<0.05)).
compound,measurement,setting,value
"O=C(/C=C/c1ccc(CN(CCO)CCc2c[nH]c3ccccc23)cc1)NO [LAQ824, N-Hydroxy-3-[4-[[(2-hydroxyethyl)[2-(1H-indol-3-yl)-ethyl]-amino]methyl]phenyl]-2E-2-propenamide]",Fold change AMP-activated protein kinase family member 5 (ARK5) 204589_at,2 h,−1.1 fold
same,"Fold change ANP32B acidic (leucine-rich) nuclear phosphoprotein 32 family, member B (SSP29) 201305_x_at",2 h,−1.3 fold
same,"Fold change AVEN apoptosis, caspase activation inhibitor (Aven) 219366_at",2 h,−1.2 fold
same,Fold change B-cell CLL/lymphoma 3 (BCL3) 204908_s_at,2 h,−1.9 fold
same,"Fold change BAI1-associated protein 2 (BAP2, IRSp53) 205293_x_at",2 h,1.4 fold
same,"Fold change BAI1-associated protein 3 (BAP3, KIAA0734) 204874_x_at",2 h,1.0 fold
same,"Fold change BAI1-associated protein 3 (BAP3, KIAA0734) 216356_x_at",2 h,2.3 fold
same,Fold change BCL2-associated athanogene 2 (BAG-2) 209406_at,2 h,−1.4 fold
same,"Fold change BCL2-interacting killer (apoptosis-inducing) (BP4, NBK, BIP1) 205780_at",2 h,2.0 fold
same,Fold change BCL2-like 1 (BCL2L1) 206665_s_at,2 h,−1.2 fold
same,Fold change BH3 interacting domain death agonist (BID) 204493_at,2 h,1.1 fold
same,"Fold change Cyclin A2 (CCN1, CCNA) 203418_at",2 h,−1.3 fold
same,"Fold change Cyclin-dependent kinase inhibitor 2D (p19, inhibits CDK4) (INK4D) 210240_s_at",2 h,1.9 fold
same,Fold change DEC1-anti apoptosis (BHLHB2) 201169_s_at,2 h,−3.2 fold
same,Fold change Diphtheria toxin receptor (heparin-binding epidermal growth factor-like growth factor) (DTR) 203821_at,2 h,9.8 fold
same,"Fold change Early growth response 1 (TIS8, NGFI-A, KROX-24, ZIF-268) 201694_s_at",2 h,1.4 fold
same,Fold change GMCL germ cell-less homolog (Drosophila) (GMCL) 218458_at,2 h,1.7 fold
same,Fold change Katanin p80 (WD40-containing) subunit B 1 (KAT) 203163_at,2 h,1.5 fold
same,"Fold change NACHT, leucine rich repeat and PYD containing 1 (PP1044) 218380_at",2 h,2.8 fold
same,Fold change Paternally expressed Gene 10 (PEG10) 212092_at,2 h,1.1 fold
same,Fold change Paternally expressed Gene 10 (PEG10) 212094_at,2 h,1.1 fold
same,Fold change Protein regulator of cytokinesis 1 (PRC1) 218009_s_at,2 h,−1.2 fold
same,Fold change SKAP55 protein 216899_s_at,2 h,1.0 fold
same,"Fold change Secreted frizzled-related protein 1 (FRP, SARP2) 202036_s_at",2 h,1.1 fold
same,"Fold change Secreted frizzled-related protein 1 (FRP, SARP2) 202037_s_at",2 h,1.1 fold
same,Fold change Serine/threonine kinase 6 (AIK) 208079_s_at,2 h,1.0 fold
same,Fold change Tribbles homolog 3a (TRIB3) 218145_at,2 h,−1.3 fold
same,"Fold change Tumor necrosis factor receptor superfamily, member 6 (TNFRSF6) 215719_x_at",2 h,−1.3 fold
same,"Fold change Tumor necrosis factor receptor superfamily, member 6 (TNFRSF6) 216252_x_at",2 h,−1.3 fold
same,Fold change Tumor protein p53 (Li-Fraumeni syndrome) 201746_at,2 h,1.1 fold
same,Fold change Tumor protein p53 (Li-Fraumeni syndrome) 211300_s_at,2 h,1.1 fold
same,Fold change member of the N-myc downregulated gene family (NDRG4) 209159_s_at,2 h,1.2 fold
same,Fold change AMP-activated protein kinase family member 5 (ARK5) 204589_at,6 h,−4.3 fold
same,"Fold change ANP32B acidic (leucine-rich) nuclear phosphoprotein 32 family, member B (SSP29) 201305_x_at",6 h,−1.6 fold
same,"Fold change AVEN apoptosis, caspase activation inhibitor (Aven) 219366_at",6 h,−1.5 fold
same,Fold change B-cell CLL/lymphoma 3 (BCL3) 204908_s_at,6 h,−10.5 fold
same,"Fold change BAI1-associated protein 2 (BAP2, IRSp53) 205293_x_at",6 h,6.2 fold
same,"Fold change BAI1-associated protein 3 (BAP3, KIAA0734) 204874_x_at",6 h,5.1 fold
same,"Fold change BAI1-associated protein 3 (BAP3, KIAA0734) 216356_x_at",6 h,11.1 fold
same,Fold change BCL2-associated athanogene 2 (BAG-2) 209406_at,6 h,−2.4 fold
same,"Fold change BCL2-interacting killer (apoptosis-inducing) (BP4, NBK, BIP1) 205780_at",6 h,6.3 fold
same,Fold change BCL2-like 1 (BCL2L1) 206665_s_at,6 h,−4.2 fold
same,Fold change BH3 interacting domain death agonist (BID) 204493_at,6 h,−1.9 fold
same,"Fold change Cyclin A2 (CCN1, CCNA) 203418_at",6 h,−2.3 fold
same,"Fold change Cyclin-dependent kinase inhibitor 2D (p19, inhibits CDK4) (INK4D) 210240_s_at",6 h,4.9 fold
same,Fold change DEC1-anti apoptosis (BHLHB2) 201169_s_at,6 h,−4.5 fold
same,Fold change Diphtheria toxin receptor (heparin-binding epidermal growth factor-like growth factor) (DTR) 203821_at,6 h,8.5 fold
same,"Fold change Early growth response 1 (TIS8, NGFI-A, KROX-24, ZIF-268) 201694_s_at",6 h,3.6 fold
same,Fold change GMCL germ cell-less homolog (Drosophila) (GMCL) 218458_at,6 h,4.1 fold
same,Fold change Katanin p80 (WD40-containing) subunit B 1 (KAT) 203163_at,6 h,2.9 fold
same,"Fold change NACHT, leucine rich repeat and PYD containing 1 (PP1044) 218380_at",6 h,7.6 fold
same,Fold change Paternally expressed Gene 10 (PEG10) 212092_at,6 h,2.0 fold
same,Fold change Paternally expressed Gene 10 (PEG10) 212094_at,6 h,1.9 fold
same,Fold change Protein regulator of cytokinesis 1 (PRC1) 218009_s_at,6 h,−1.9 fold
same,Fold change SKAP55 protein 216899_s_at,6 h,1.6 fold
same,"Fold change Secreted frizzled-related protein 1 (FRP, SARP2) 202036_s_at",6 h,1.6 fold
same,"Fold change Secreted frizzled-related protein 1 (FRP, SARP2) 202037_s_at",6 h,1.8 fold
same,Fold change Serine/threonine kinase 6 (AIK) 208079_s_at,6 h,−2.0 fold
same,Fold change Tribbles homolog 3a (TRIB3) 218145_at,6 h,−4.6 fold
same,"Fold change Tumor necrosis factor receptor superfamily, member 6 (TNFRSF6) 215719_x_at",6 h,−3.2 fold
same,"Fold change Tumor necrosis factor receptor superfamily, member 6 (TNFRSF6) 216252_x_at",6 h,−2.9 fold
same,Fold change Tumor protein p53 (Li-Fraumeni syndrome) 201746_at,6 h,−1.9 fold
same,Fold change Tumor protein p53 (Li-Fraumeni syndrome) 211300_s_at,6 h,−1.6 fold
same,Fold change member of the N-myc downregulated gene family (NDRG4) 209159_s_at,6 h,2.8 fold
